Assay results reported in PMC2228116 (British Journal of Cancer, 1997).
Values joined by “and” are separate entries in the source; they are usually repeats but may differ in a detail not shown here. Equal entries are not always repeated.

What was measured:
[1] = in vitro; details: male, Wistar, rat, pH 7.4
Procedure: (§1) British Joumal of Cancer (1997) 76(9), 1170-1180 ? […] Livers were perfused with 5-FU alone at a dose of 15 mg kg-' body weight or with 5-FU + GW776 at doses of 15 mg 5-FU kg-' body weight and 0.5 mg GW776 kg-' body weight injected 1 h before 5-FU. […] Keywords: 5-fluorouracil; 5-ethynyluracil (GW776); 19F nuclear magnetic resonance; modulation of 5-fluorouracil metabolism; fluoroacetate; 2-fluoro-3-hydroxypropionic acid; isolated perfused rat liver 5-Fluorouracil (5-FU) is one of the most commonly used anti- cancer agents for treatment of solid tumours. Common clinical adverse reactions include myelosuppression, diarrhoea, vomiting and mucositis. […] 5-Ethynyluracil (GW776) is a potent inactivator of the catabolic pathway of 5-FU acting on dihydropyrimidine dehydrogenase (DPD), the enzyme that converts 5-FU into its first catabolite, 5,6-dihydro-5-fluorouracil (FUH2), thereby preserving 5-FU from its rapid and extensive catabolism (Porter et al, 1992; Baccanari et al, 1993; Spector et al, 1993). […] MATERIALS AND METHODS IPRL experiments Livers from male Wistar rats (Iffa Credo, Lyon, France) were isolated and perfused with recirculation of the perfusion medium according to the design originally described by Brauer et al (1951) and modified by Sabouraud et al (1993). The recirculating perfusate (approximately 180 ml), oxygenated with oxygen- carbon dioxide (95%:5%), was a Krebs-Ringer bicarbonate buffer supplemented with glucose (1.3 mM) and bovine serum albumin (0.5%). The perfusate (pH 7.4) was recirculated at a mean flow rate of 10 ml min-1 g-' of liver. The experiments were carried out with solutions of 5-FU prepared immediately before use at a dose of 15 mg kg-' body weight.

[2] = system: isolated perfused rat liver; assay: in vitro
Procedure: as §1

[3] = system: isolated perfused rat liver; assay: Liver viability in IPRL experiments (LDH activity in perfusate, bile flow); details: Table 1, text
Procedure: as §1, with “The recirculating perfusate (approximately 180 ml), oxygenated with oxygen- carbon dioxide (95%:5%), was a Krebs-Ringer bicarbonate buffer supplemented with glucose (1.3 mM) and bovine serum albumin (0.5%). The perfusate (pH 7.4) was recirculated at a mean flow rate of 10 ml min-1 g-' of liver. The experiments were carried out with solutions of 5-FU prepared immediately before use at a dose of 15 mg kg-' body weight.” left out

[4] = Control experiments without liver: chemical transformation in perfusate (19F-NMR); type: physicochemical
[5] = set-up: method as in Khor et al, 1996; details: humans, without GW776; ref Khor et al, 1996; cited from earlier work
[6] = set-up: method as in Zhang et al, 1992, 1993; details: rats; ref Zhang et al, 1992, 1993; cited from earlier work
[7] = system: isolated perfused rabbit heart; assay: Cardiotoxicity on the isolated perfused rabbit heart model; details: unpublished data
[8] = system: DPD; set-up: method as in Baccanari et al (1993); details: 1 h or 6 h after single dose GW776 2 mg kg-1 p.o.; compared with > 96% of this study; ref Baccanari et al (1993); cited from earlier work
[9] = system: dogs; set-up: method as in Davis et al (1994); details: 26-h continuous infusion of 5-FU at 1.6, 4 or 16 mg kg-1 24 h-1; ref Davis et al (1994); cited from earlier work
[10] = system: mouse tumour models; set-up: method as in Baccanari et al, 1993; details: ref Baccanari et al, 1993; cited from earlier work
[11] = system: rat tumour models; set-up: method as in Cao et al, 1994; details: ref Cao et al, 1994; cited from earlier work
[12] = system: MOPC-315 s.c. tumours; set-up: method as in Davis et al (1995); details: compared with mice treated with 5-FU alone; ref Davis et al (1995); cited from earlier work
[13] = Table 4, liver acid-insoluble extract
[14] = FBAL 16.6 mg kg-1 circulated 3 h without liver, after concentration
[15] = GW776 0.5 mg kg-1 1 h before 5-FU 15 mg kg-1

O=c1[nH]cc(F)c(=O)[nH]1 [5-FU, 5-fluorouracil]
recovery [1]: 0%
Unmetabolized 5-FU, global recovery [2]: All 5-FU was metabolized
5', 2' and 3' FUMP in acid-insoluble extract [2, 13]: 0 Per cent of Injected dose
5-FU in acid-insoluble extract [2, 13]: 0 Per cent of Injected dose
5-FU in acid-soluble extract ([2]; Table 4, liver acid-soluble extract): 0 Per cent of Injected dose
Total in acid-soluble extract ([2]; Table 4, liver acid-soluble extract, P<0.01): 13 + 4 Per cent of Injected dose and 13 Per cent of Injected dose
5-FU in perfusate ([2]; male, Wistar, rat, pH 7.4): 0 Per cent of Injected dose
Unmetabolized 5-FU ([2]; male, Wistar, rat, pH 7.4): 0% of injected dose
LDH activity compared with control experiments [3]: no significant difference
Chemical transformation in perfusate ([4]; perfusate bubbled with carbogen for 3 h at 37 C): not chemically transformed
Half-life of 5-FU [5]: approximately 14 min

NCC(F)C(=O)O (stereo not drawn) [FBAL, alpha-fluoro-beta-alanine]
Adduct of FBAL with a-glucose as share of all the fluorinated compounds detected [4, 14]: 2.4%
Adduct of FBAL with beta-glucose as share of all the fluorinated compounds detected [4, 14]: 28.3%
CFBAL as share of all the fluorinated compounds detected [4, 14]: 49.6%
F- as share of all the fluorinated compounds detected [4, 14]: 1.4%
FBAL as share of all the fluorinated compounds detected [4, 14]: 18.3%
FBAL signal share ([4]; solution of FBAL in perfusion medium over 3 h): 98.9%
Retention in various tissues (mainly liver, heart and brain) [6]: up to 8 days

O=C(O)C(F)CO (stereo not drawn) [FHPA, 2-fluoro-3-hydroxypropionic acid]
Cardiotoxicity ([7]; 0.01 mg kg-1 (lowest dose)): did not generate cardiotoxic symptoms
Cardiotoxicity ([7]; 1.5 mg kg-1 (highest dose)): highly cardiotoxic

C#Cc1c[nH]c(=O)[nH]c1=O [GW776, 5-ethynyluracil]
Inhibition of rat liver ability to catalyse 5-FU degradation ([2]; GW776 0.5 mg kg-1 1 h before 5-FU): > 96%
Decrease in FBAL formation [2, 15]: approximately 110 factor
Decrease in fluoride ion formation [2, 15]: approximately 10 factor
Decrease of the amount of 5-FU catabolites in the presence of GW776 [2, 15]: 27 factor
Increase of 5-FU anabolites [2, 15]: approximately 7 factor
Inhibition of DPD activity in liver extracts [8]: the same extent of inhibition
Protection from 5-FU-induced neurotoxicity [9]: protected dogs from the neurotoxicity
Therapeutic index of 5-FU [10]: increases the therapeutic index of 5-FU
Therapeutic index of 5-FU [11]: increases the therapeutic index of 5-FU
Incorporation of 5-FU into RNA in tumours [12]: enhanced the incorporation
